Data on 40 compounds can be found in PubChem BioAssay (NCI).

Several values for one entry are separate records, joined by “and”; a condition that tells them apart may be missing. Equal values may be shown once.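 Values below derive from 48-hour exposures of cells grown in 96-well plates, with endpoints linearly interpolated between the two concentrations bracketing the appropriate inhibition level. Abbreviation: GI50, concentration required for 50% inhibition of growth. Definition used: TGI = concentration required for complete inhibition of growth.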

The test system of this test is MDA-MB-468 breast. Nature of the test: inhibition of tumour cell growth, NCI panel, 48 h.
For `Fc1ccc(-c2ncn(CCCN3CCOCC3)c2-c2ccncc2)cc1`, the GI50 is above 25 µM and the TGI is above 25 µM.

In the case of `Cc1c[nH]c(=O)n(Cc2nnc(CCC(=O)c3nc4ccccc4[nH]3)o2)c1=O`, the GI50 is 0.156 µM and the TGI was 0.553 µM.

As to `CC(C)=Cc1cccc2[nH]c(O)c(N=Nc3ccc(S(N)(=O)=O)cc3)c12`, the GI50 was above 5.22 µM and the TGI was above 25 µM.

In the case of `O=[N+]([O-])c1ccc(N=Nc2c(Cl)cc(O)cc2Cl)cc1`, the GI50 was 0.772 µM and the TGI came to 5.81 µM. Taken in the same sequence, the figures for `COc1ccc(CNCCCN2C(=O)c3ccc4c5c(ccc(c35)C2=O)C(=O)N(CCCNCc2ccc(OC)c(OC)c2OC)C4=O)c(OC)c1OC` were 0.0793 µM and 0.151 µM. In the same order, the values of `O=C1c2ccccc2C(=O)c2c1oc1c2c(=O)[nH]c2ccc(Cl)cc21` are 0.249 µM and 0.868 µM. In the case of `C/C(CC(C)(C)N1CC1)=N\NC(=O)Nc1cccc2ccccc12`, the GI50 was 1.92 µM and the TGI was 4.61 µM. Taken in the same sequence, the figures for `CCN1C(=O)N(CC)C2C1NN=c1s/c(=C\c3ccc(C(F)(F)F)cc3)c(=O)n12` (stereo not drawn) were 0.318 µM and 24.2 µM. In the same order, the values of `COc1ccc(C2=NN(C(C)=O)C(c3ccc(Oc4ccnc5cc(Cl)ccc45)c(OC)c3)C2)cc1` (stereo not drawn) are 7.43 µM and 65.1 µM.

As to `CCOC(=O)Nc1ccc2c(c1)C(=O)N(CC)c1ccccc1O2`, the GI50 is 0.201 µM. For `COC(=O)C1=C(C(=O)ON)[C@@H]2C=C[C@@]1([C@@H](Cc1ccccc1)Nc1ccccc1)O2`, the GI50 is 1.48 µM and the TGI was found to be 2.97 µM.

For `CC(=O)Nc1ccc(OC(C)=O)cc1`, the GI50 was below 0.01 µM and the TGI is below 0.101 µM.

Turning to `O=C(Nc1n[nH]c2nc(-c3ccc(O)cc3)c(Br)cc12)C1CC1`, the GI50 is 3.93 µM and the TGI is 8.79 µM. Take `O=c1cc(-c2ccccc2)oc2c1ccc1ccccc12`: the GI50 was 23.6 µM and the TGI was 95.4 µM. For `COc1cc(NS(C)(=O)=O)ccc1Cc1c2ccccc2nc2ccccc12`, the GI50 is 0.31 µM and the TGI turned out to be 1.81 µM. In the same order, the values of `CCCCc1n(Cc2ccc3ccccc3n2)cc[n+]1Cc1ccc2ccccc2n1` are 0.244 µM and 1.64 µM. As to `O=C(Nc1cn[nH]c1-c1nc2ccc(CN3CCOCC3)cc2[nH]1)NC1CC1`, the GI50 is 0.0355 µM and 0.207 µM; the TGI is 1.67 µM and 9.37 µM. `Cc1ccc(-c2nc(/C=N/Nc3cc(C)nc4ccc(Br)cc34)c(C)o2)cc1`: the GI50 is 1.95 µM and the TGI stood at 3.87 µM. As to `CC[C@H]1CCC/C=C/[C@@H]2C[C@H](O)C[C@H]2[C@H](O)/C=C/C(=O)O1`, the TGI came to 0.0167 µM. As to `O=C1/C(=C/c2ccc(F)cc2)CN(C(=O)C(Cl)Cl)C/C1=C\c1ccc(F)cc1`, the GI50 is 0.203 µM and the TGI was 0.48 µM. Taken in the same sequence, the figures for `O=C(c1ccccc1)C1OC1C(=O)c1ccccc1` (stereo not drawn) were 1.71 µM and 6.72 µM.

For the compound `COc1c(O)cc2c(c1OC)-c1ccc(SC)c(=O)cc1C(NC(C)=O)CC2` (stereo not drawn), the GI50 is 3.02 µM and the TGI was above 100 µM.

Regarding `COc1ccc([C@@H]2[C@@H](O)C(=O)N2c2cc(OC)c(OC)c(OC)c2)cc1Cl`, the GI50 is below 0.0141 µM and the TGI is above 35.9 µM. In the same order, the values of `CCc1cccc(NC(=O)Nc2ccc(Oc3ccc4nc(NC(=O)OC)[nH]c4c3)cc2)c1` are 0.0751 µM and 2.96 µM. In the same order, the values of `CC[C@]12C=CCN3CC[C@@]4(c5ccc(OC)cc5N(C)[C@H]4[C@@](O)(C(=O)OC)[C@@H]1OC(=O)CCC(=O)O[C@H]1CC[C@H]4[C@@H]5CC[C@H]6CC(=O)CC[C@]6(C)[C@H]5CC[C@]14C)[C@@H]32` are 3.13 µM and above 100 µM. In the same order, the values of `O=C(CCCC(=O)N/N=C/c1cc(Cl)ccc1O)N/N=C\c1cc(Cl)ccc1O` are 2.22 µM and 9.3 µM. Turning to `CCOC(=O)c1c2c(n3ccc(NC(=O)CCN4CCCCC4)cc13)C(=O)c1ncccc1C2=O`, the GI50 is 1.76 µM and the TGI came out at 3.39 µM. In the same order, the values of `COc1ccc(C2CC(c3ccc(OC)cc3O)=NN2c2ccc(S(N)(=O)=O)cc2)cc1` (stereo not drawn) are 22.3 µM and above 100 µM.

On to `CCCS(=O)(=O)Nc1cccc(Nc2ncnc3cc(NC(=O)CCl)ccc23)c1Cl`, for which the GI50 is 3.16 µM and the TGI is 8.52 µM. On to `CC1=C2[C@@H](CC1)[C@]1(C)O[C@@](C(C)C)(C[C@H]1OC(=O)CO)[C@H]2OC(=O)CCCc1ccccc1`, for which the GI50 is 12.4 µM and the TGI was 26.3 µM. In the same order, the values of `CCn1c(SCC(=O)Nc2cc(C(F)(F)F)ccc2Cl)nc2ccccc2c1=O` are 14 µM and above 100 µM. In the same order, the values of `COc1ccc(-c2cc(-c3ccc(OC)cc3)nc(NCCCNc3ccnc4cc(Cl)ccc34)n2)cc1` are 1.27 µM and 2.79 µM.

`COc1ccc2nc3c(cc2c1)C(=O)CC(c1ccccc1)C3` (stereo not drawn): the GI50 was 4.08 µM and the TGI was above 100 µM.

`CCN(CC)CCn1c(=O)c2cc(OC)c(OC)cc2c2ccc3cc4c(cc3c21)OCO4`: the GI50 is 0.84 µM and the TGI is 19.8 µM. In the same order, the values of `O=C1c2cc3c(cc2-c2c1c1ccc(F)cc1c(=O)n2C[C@H](O)[C@H](O)[C@H](O)CO)OCO3` are 0.0646 µM and 0.213 µM. In the same order, the values of `CCCCOc1ccc(S(=O)(=O)N2CCN(c3nccc(N4CCOCC4)n3)CC2)cc1` are 0.456 µM and 2.53 µM. Taken in the same sequence, the figures for `C#Cc1cccc(NC(=O)c2cccc(NC(=O)CCl)c2)c1` were 17.4 µM and 52.7 µM.

With `O=c1oc2ccc(Cl)cc2c(=O)n1-c1ccc(F)cc1F`, the GI50 is 1.98 µM and the TGI came to 5.71 µM. In the same order, the values of `COc1cc2c(cc1O)c(=O)n(CCN(C)C)c1c3cc4c(cc3ncc21)OCO4` are below 0.01 µM and 0.014 µM. Taken in the same sequence, the figures for `S=C1SCN(Cc2ccccc2)CN1Cc1ccccc1` were 1.2 µM and 17.1 µM.
